# Test system: Clostridium ljungdahlii
# Assay: Autotrophic production in carbonate buffer on synthesis gas with 0.4 g/l or no L-cysteine HCl (Example 2)
# Assay type: cell-based
# Details: for Acetate (NMR) / Ethanol (NMR) / OD600 / Δp: reactor 2, 0.4 g/L L-Cysteine-HCl
# Procedure: For the production, anaerobic carbonate buffer (adjusted with KOH 1.87 g/L) was used.
# Identical autotrophic productions were carried out in 500 mL septum bottles with 100 mL of carbonate carried out in a shaking water bath shaker (open Innova 3100 by New Brunswick Scientific) at 100 min^−1. The productions were carried out at 37° C. with manual control of the pH. Once the pH dropped below 5.5, KOH was metered from a stock solution of 187 g/L. In the present experiments the pH in both reactors at points in time of 50.3 h and 73.3 h were taken and corrected by the addition of each 1.87 g/L KOH manually.
# The reactors were inoculated with a synthesis gas mixture of 67% H2 and 33% CO2 pressurized with an overpressure of 0.8 bar. To replenish the consumed gas, the gas atmosphere was completely replaced once a day in the headspace of the reactors and again pressured to 0.8 bars.
# The reactor 1 contained a concentration of L-cysteine HCl of 0 g/L, and reactor 2 a concentration of L-cysteine HCl of 0.4 g/L.
# The reactors started with autotrophic cells at an OD of 0.2. The pre-culture was carried out continuously in a 1 L bottle with 500 ml of complex medium. The complex medium comprised of 1 g/l NH4Cl, 0.1 g/l KCl, 0.2 g/l MgSO4×7 H2O, 0.8 g/l NaCl, 0.1 g/l KH2PO4, 20 mg/l CaCl2×2 H2O, 20 g/l MES, 1 g/l yeast extract, 0.4 g/L L-cysteine HCl, 20 mg/l nitrilotriacetic acid, 10 mg/l MnSO4 H2O x, 8 mg/l (NH4)2Fe(SO4)2×6 H2O, 2 mg/L CoCl2×6 H2O, 2 mg/l ZnSO4×7 H2O, 0.2 mg/l CuCl2×2H2O, 0.2 mg/l Na2MoO4×2 H2O, 0.2 mg/l NiCl2×6 H2O, 0.2 mg/l Na2SeO4, 0.2 mg/l Na2WO4×2 H2O, 20 μg/l d-biotin, 20 μg/L folic acid, 100 μg/l pyridoxine HCl, 50 μg/l thiamine-HCl×H2O. 50 μg/l of riboflavin, 50 μg/l nicotinic acid, 50 μg/l Ca-pantothenate, 1 μg/L of vitamin B12, 50 μg/l p-aminobenzoate, 50 μg/l lipoic acid. The gassing of the culture with synthesis gas (67% H2, 33% CO2) was carried out continuously at a flow rate of 3 l/h over a filter with pore size of 10 microns. The cells were in late log phase of growth at an OD of 0.23 anaerobically centrifuged (4500 rpm, 4300 g, 20° C., 10 min). The supernatant was discarded and the cell pellet resuspended in 10 ml carbonate buffer. The prepared cells were then used to inoculate the actual experiments.
# When sampling each 5 ml sample was removed for determination of 0D600, pH and the product range. The determination of the product concentration was performed by quantitative ^1H-NMR spectroscopy. As an internal quantification standard sodium trimethylsilylpropionate (T(M)SP) was used.
smiles,measurement,setting,value
"Cl.N[C@@H](CS)C(=O)O [L-Cysteine-HCl, L-cysteine hydrochloride]",concentrations of ethanol and acetate formed,"0.4 g/L compared with no L-cysteine-HCl, end of 98.8 h reaction time",higher
same,Acetate (NMR),0.0 h,15 mg/L
same,Ethanol (NMR),0.0 h,5 mg/L
same,OD600,0.0 h,0.18
same,Acetate (NMR),26.0 h,1714 mg/L
same,Ethanol (NMR),26.0 h,21 mg/L
same,OD600,26.0 h,0.18
same,Δp,26.0 h,0.6 bar
same,Acetate (NMR),50.3 h,2471 mg/L
same,Ethanol (NMR),50.3 h,91 mg/L
same,OD600,50.3 h,0.19
same,Δp,50.3 h,0.5 bar
same,OD600,74.3 h,0.18
same,Δp,74.3 h,0.4 bar
same,Acetate (NMR),98.8 h,3366 mg/L
same,Ethanol (NMR),98.8 h,84 mg/L
same,OD600,98.8 h,0.18
same,Δp,98.8 h,0.2 bar
same,gas consumption,"reactor 2 with 0.4 g/L compared with 0 g/L L-cysteine-HCl, over 98.8 h",higher

# — patent US20160177259A1, “[…]” (Evonik Degussa GmbH, priority 2014, published 2016)
